Key:
[1] = Helix contents estimated from far-UV CD spectra; type: physicochemical; conditions: 30 μM peptide without His-tag–GB1, 30 °C, pH 7.0, CONTINLL with SDP48 reference set
Description: CD spectra were measured using a J-805 spectropolarimeter (JASCO, Tokyo, Japan) from 200 to 250 nm in a quartz cuvette with a 1-mm path length at 30 °C. Protein concentrations were 30 μM. The CD intensity was converted to MRE using the following equation:1 MRE(deg cm^2dmol^-1)=CD(mdeg)/N·c(M)·l(mm) where N is the number of residues, c is the protein concentration, and l is the path length.
The helix contents of the MLL TAD peptide were calculated from the far-UV CD spectra using the CONTINLL program[42] with the reference data set containing soluble and denatured proteins (SDP48) in the CDPro package.

KIX [2] = conditions: previously reported value for binding between KIX and MLL TAD; cited from earlier work
From the text: Previous studies have reported several inhibitors that bind the MLL site of KIX, including isoxazolidine derivatives, which are small molecule compounds that mimic the function of the TADs of transcriptional activators, and natural products such as sekikaic acid and lobaric acid[21],[22].

KIX [3] = molecular target: T1, KIX (Mus musculus, UniProt P45481); test: KIX binding by isothermal titration calorimetry (ITC); conditions: 30 °C
T1 construct: The DNA fragment of KIX (residues 586–672 of mouse CBP); 6xHis-tag with thrombin cleavage site (N); made in house; host or cells: E. coli BL21(DE3)pLysS
Description: For the expression of MLL TAD, E. coli BL21(DE3) competent cells were transformed with the plasmid and cultivated at 37 °C in 2 × YT liquid medium supplemented with ampicillin. When an optical density at 600 nm (OD600) of the cell culture reached 0.7–0.8, 1 mM isopropyl β-D-1-thiogalactopyranoside was added to induce protein expression. After 4 h of cultivation, the cells were harvested by centrifugation. The E. coli cell pellet was suspended with buffer HP (50 mM sodium phosphate [pH 7.4], 300 mM NaCl, 10 mM imidazole, and 6 M guanidine hydrochloride). The sonicated lysate was centrifuged at 4 °C, and the supernatant was filtered using a membrane filter and applied to a gravity column (50 mL) containing 5 mL of nickel-nitrilotriacetic acid (Ni–NTA) resin (Qiagen, Hilden, Germany). The column was washed with buffer HP and buffer AP (50 mM sodium phosphate [pH 7.4], 300 mM NaCl, and 10 mM imidazole) to remove impurities. To elute His-tag–GB1–MLL TAD for ITC and SPR measurements, 40 mL of buffer EP (50 mM sodium phosphate [pH 7.4], 300 mM NaCl, and 250 mM imidazole) was added to the column. […] Thus, His-tag–GB1–MLL TAD was used in the ITC measurements, with the exception of the four mutants (I2849L, D2851L, K2855R, and T2857I). To obtain the MLL TAD peptide without His-tag–GB1 for CD measurements, we washed the column, to which the His-tag–GB1–MLL TAD was attached, with buffer TP (50 mM sodium phosphate [pH 7.4] and 300 mM NaCl), added 150 units of thrombin to the column for digestion of the His-tag–GB1, and eluted the MLL TAD peptide with buffer TP. After Ni–NTA column purification, anion exchange chromatography was performed to further purify the aforementioned four mutants without His-tag–GB1 using the AKTAprime plus chromatography system (Cytiva, Marlborough, MA, USA; 10 mM sodium phosphate [pH 6.0] and 0–1 M NaCl). Due to the fact that the CD spectra of the four mutants were unchanged before and after the anion exchange chromatography, we omitted this procedure for other mutants.
Expression and purification of the KIX protein was performed in the same way as MLL, except that E. coli BL21(DE3)pLysS competent cells and 2 × YT liquid medium with ampicillin and chloramphenicol were used. After Ni–NTA column purification, gel filtration chromatography was performed using a Superdex 200 pg column (Cytiva) and the ITC buffer (20 mM Tris–acetate [pH 7.0] and 50 mM NaCl).
ITC measurements were performed using MicroCal iTC200 (Malvern Panalytical Ltd., Malvern, United Kingdom) at 30 °C. Samples were sufficiently dialyzed with the ITC buffer before measurements. The 600 μM MLL solution was titrated into the cell containing 45 µM KIX. The data were analyzed using the Origin 7 software (OriginLab Corp., Northampton, MA, USA; https://www.originlab.com) to obtain the Kd (M), ΔH (kcal/mol), and stoichiometry of binding, N. The ΔG (kcal/mol) and ΔS (kcal/mol/K) were obtained as follows:2 ΔG=-RTln1/Kd 3 ΔS=ΔH-ΔG/T where R is the gas constant, and T is the temperature.

T1 sequence (P45481 586-672): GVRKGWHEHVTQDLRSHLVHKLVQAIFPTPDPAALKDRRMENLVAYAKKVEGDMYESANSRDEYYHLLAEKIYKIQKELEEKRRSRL

SMILES: CC[C@H](C)[C@H](NC(=O)[C@H](CC(=O)O)NC(=O)[C@H](CO)NC(=O)[C@@H]1CCCN1C(=O)[C@H](CC(C)C)NC(=O)[C@@H](NC(=O)[C@H](CC(N)=O)NC(=O)CN)[C@@H](C)CC)C(=O)N[C@@H](CCSC)C(=O)N[C@@H](CC(=O)O)C(=O)N[C@@H](Cc1ccccc1)C(=O)N[C@H](C(=O)N[C@@H](CC(C)C)C(=O)N[C@@H](CCCCN)C(=O)N[C@@H](CC(N)=O)C(=O)N[C@H](C(=O)N1CCC[C@H]1C(=O)N[C@@H](CO)C(=O)N[C@@H](CCSC)C(=O)N[C@@H](CCC(N)=O)C(=O)N[C@@H](C)C(=O)N[C@@H](CC(C)C)C(=O)NCC(=O)N[C@@H](CCC(=O)O)C(=O)N[C@@H](CO)C(=O)N1CCC[C@H]1C(=O)N[C@@H](CCC(=O)O)C(=O)N[C@@H](CO)C(=O)N[C@@H](Cc1ccc(O)cc1)C(=O)O)[C@@H](C)O)C(C)C [wild type, reference compound]
- helix contents [1]: ~ 5.7%
- Kd (KIX [2]): 2100 nM
- N (stoichiometry of binding) (KIX [3]; pH 7.0, mean ± standard error of triplicate or more): 1.02 ± 0.01
- − TΔS (KIX [3]; entropy term upon KIX binding, pH 7.0, ΔS=(ΔH-ΔG)/T, mean ± standard error of triplicate or more): 5.2 ± 0.1 kcal/mol
